The values that follow come from patent US10844023B2 (Washington University, priority 2017, dated 2020).

Structures are written as SMILES.

The test system of this experiment is Mfn2 null MEFs. The experiment can be described thus: Mitochondrial elongation (aspect ratio) fusogenicity assay. Further details: % long compare to B: dose or concentration left out as unconfirmed. The settings on record: mitochondrial elongation relative to Cpd B (B01 = 100); Mfn2 null MEFs, compound overnight as printed (FIG. 48). The format is cell-based, mouse. The text has this:
A cultured murine embryonic fibroblast assay system was used in which mitochondrial elongation (an increase in aspect ratio) reflects enhanced mitochondrial fusion.
A pharmacophore model was generated based on the interactions of HR1 and HR2 domains in the calculated structural model of Mfn2 in the closed conformation. The key features included hydrophobic interactions involving Mfn2 HR1: Val372 and Met376, and aromatic interactions and hydrogen bonding involving Mfn2 HR1 His380. […] A library comprising ˜14 million commercially available compounds was prepared in silico and evaluated using PHASE to fit these criteria. Top ranked hits were clustered, and filtered based on pharmacological properties using Qikprop. The top 55 (see TABLE 4) commercially available small molecules conforming to the model were selected for functional screening and purchased in 1 mg aliquots. […] Images were acquired by confocal microscopy. Each compound was scored for fusogenicity (see e.g., FIG. 24A) and % cell death (see e.g., FIG. 24B).
Cells were excited with 408 nm (Hoechst), […] (MitoTracker Green and Calcein AM, GFP), or 637 nm (TMRE, MitoTracker Orange, Ethidium homodimer-1, and AF594-Dextran) laser diodes. For mitochondrial elongation studies mitochondrial aspect ratio (long axis/short axis) was calculated using automated edge detection and Image J software. Mitochondrial depolarization was calculated as % of green mitochondria visualized on MitoTracker Green and TMRE merged images, expressed as green/(green+yellow mitochondria)×100.
`CC(Sc1nnc(-c2ccco2)n1-c1ccccc1)C(=O)Nc1sc2c(c1C(N)=O)CCC2` (centres unmarked) [1-06, 2-(2-{[5-(furan-2-yl)-4-phenyl-4H-1,2,4-triazol-3-yl]sulfanyl}propana-mido)-4H,5H,6H-cyclopenta[b]thiophene-3-carboxamide]: the “% long compare to B” value was determined as 10%.

As to `Cn1c(SCC(=O)Nc2sc3c(c2C(N)=O)CCC3)nnc1-c1ccc(F)cc1` [1-A3, 2-(2-{[5-(4-fluorophenyl)-4-methyl-4H-1,2,4-triazol-3-yl]sulfanyl}acetamido)-4H,5H,6H-cyclopenta[b]-thiophene-3-carboxamide], the “% long compare to B” value was −10%.

Turning to `CC1CCc2c(sc(NC(=O)CSc3nnc4n3CCCCC4)c2C(N)=O)C1` (centres unmarked) [1-A4, 6-methyl-2-(2-{5H,6H,7H,8H,9H-[1,2,4]triazolo[4,3-a]azepin-3-ylsulfanyl}acetamido)-4,5,6,7-tetrahydro-1-benzothiophene-3-carboxamide], the “% long compare to B” value turned out to be 2%.

For `NC(=O)c1c(NC(=O)CSc2nc(C3CC3)n(-c3ccccc3)n2)sc2c1CCC2` [1-A5, 2-{2-[(5-cyclopropyl-1-phenyl-1H-1,2,4-triazol-3-yl)sulfanyl]acetamido}-4H,5H,6H-cyclopenta[b]thiophene-3-carboxamide], the “% long compare to B” value is recorded as −6%.

For the molecule `COc1ccc(-n2ccnc2SC(C)C(=O)Nc2sc3c(c2C(N)=O)CCC3)cc1` (centres unmarked) [1-A7, 2-(2-{[1-(4-methoxyphenyl)-1H-imidazol-2-yl]sulfanyl}-propanamido)-4H,5H,6H-cyclopenta[b]thiophene-3-carboxamide], the “% long compare to B” value was −24%.

As for `CCn1c(Cc2ccccc2)nnc1SC(C)C(=O)Nc1sc2c(c1C(N)=O)CCC2` (centres unmarked) [1-A8, 2-{2-[(5-benzyl-4-ethyl-4H-1,2,4-triazol-3-yl)sulfanyl]-propanamido}-4H,5H,6H-cyclopenta[b]thiophene-3-carboxamide], the “% long compare to B” value was determined as 47%.

Consider `NC(=O)c1c(NC(=O)CSc2nnc3n2CCCCC3)sc2c1CCC2` [1-A10, 2-(2-{5H,6H,7H,8H,9H-[1,2,4]triazolo[4,3-a]azepin-3-ylsulfanyl}acetamido)-4H,5H,6H-cyclopenta[b]thio-phene-3-carboxamide], for which the “% long compare to B” value is 45%.

With `CC1CCc2c(sc(NC(=O)CSc3nnc(C4CC4)n3C)c2C(N)=O)C1` (centres unmarked) [1-A11, 2-{2-[(5-cyclopropyl-4-methyl-4H-1,2,4-triazol-3-yl)sulfanyl]acetamido}-6-methyl-4,5,6,7-tetrahydro-1-benzothiophene-3-carboxamide], the “% long compare to B” value is on record as 6%.

In the case of `CC(Sc1nnc(N2CCCCC2)n1-c1ccccc1)C(=O)Nc1sc2c(c1C(N)=O)CCC2` (centres unmarked) [1-A12, 2-(2-{[4-phenyl-5-(piperidin-1-yl)-4H-1,2,4-triazol-3-yl]sul-fanyl]propanamido)-4H,5H,6H-cyclopenta[b]thiophene-3-carboxamide], the “% long compare to B” value is listed as −8%.

Consider `CC1CCc2c(sc(NC(=O)CSc3nnc(C4CC4)n3-c3ccccc3)c2C#N)C1` (centres unmarked) [1-B2, N-(3-cyano-6-methyl-4,5,6,7-tetrahydro-1-benzothiophen-2-yl)-2-[(5-cyclopropyl-4-phenyl-4H-1,2,4-triazol-3-yl)sulfanyl]acetamide], for which the “% long compare to B” value is −11%.

Consider `NC(=O)c1c(NC(=O)CSc2nnc(C3CC3)n2-c2ccccc2)sc2c1CCC2` [1-B3, 2-{2-[(5-cyclopropyl-4-phenyl-4H-1,2,4-triazol-3-yl)sulfanyl]acetamido}-4H,5H,6H-cyclopenta[b]thiophene-3-carboxamide], for which the “% long compare to B” value turned out to be 90%.

As for `Cn1c(SCC(=O)Nc2sc3c(c2C(N)=O)CCC3)nnc1C(F)(F)F` [1-B4, 2-(2-{[4-methyl-5-(trifluoro-methyl)-4H-1,2,4-triazol-3-yl]sulfanyl}acetamido)-4H,5H,6H-cyclopenta[b]-thiophene-3-carboxamide], the “% long compare to B” value stood at 10%.

For the molecule `Cn1c(SCC(=O)Nc2sc3c(c2C(=O)NCc2ccccc2)CCCC3)nnc1C1CC1` [1-B5, N-benzyl-2-{2-[(5-cyclopropyl-4-methyl-4H-1,2,4-triazol-3-yl)sulfanyl]acetamido}-4,5,6,7-tetrahydro-1-benzothiophene-3-carboxamide], the “% long compare to B” value is −31%.

Regarding `COCCNC(=O)c1c(NC(=O)CSc2nnc(C3CC3)n2C)sc2c1CCCC2` [1-B6, 2-{2-[(5-cyclopropyl-4-methyl-4H-1,2,4-triazol-3-yl)sulfanyl]acetamido}-N-(2-methoxyethyl)-4,5,6,7-tetrahydro-1-benzothiophene-3-carboxamide], the “% long compare to B” value is 68%.

As to `CC(Sc1nnc(Cc2cccs2)n1C)C(=O)Nc1sc2c(c1C(N)=O)CCC2` (centres unmarked) [1-B7, 2-[2-({4-methyl-5-[(thiophen-2-yl)methyl]-4H-1,2,4-triazol-3-yl}sulfanyl)propanamido]-4H,5H,6H-cyclopenta[b]thio-phene-3-carboxamide], the “% long compare to B” value is 41%.

For `Cc1occc1-c1nnc(SC(C)C(=O)Nc2sc3c(c2C(N)=O)CCC3)n1-c1ccccc1` (centres unmarked) [1-B8, 2-(2-{[5-(2-methylfuran-3-yl)-4-phenyl-4H-1,2,4-triazol-3-yl]sulfanyl}propanamido)-4H,5H,6H-cyclopenta[b]thio-phene-3-carboxamide], the “% long compare to B” value amounted to 20%.

For `O=C(NCCSCc1ccccc1F)NC1CCCCC1` [1-B10, 1-cyclohexyl-3-(2-{[(2-fluorophenyl)methyl]sulfanyl}ethyl)urea], the “% long compare to B” value is listed as 6%.

`CC1CCc2c(sc(NC(=O)CSc3nc(C4CC4)n(-c4ccccc4)n3)c2C(N)=O)C1` (centres unmarked) [1-B11, 2-{2-[(5-cyclopropyl-1-phenyl-1H-1,2,4-triazol-3-yl)sulfanyl]acetamido}-6-methyl-4,5,6,7-tetrahydro-1-benzothiophene-3-carboxamide]: the “% long compare to B” value is −12%.

As to `N#Cc1c(NC(=O)CSc2nnc(C3CC3)n2-c2ccccc2)sc2c1CCCC2` [1-C1, N-(3-cyano-4,5,6,7-tetrahydro-1-benzothiophen-2-yl)-2-[(5-cyclopropyl-4-phenyl-4H-1,2,4-triazol-3-yl)sulfanyl]acetamide], the “% long compare to B” value is 19%.

Regarding `Cc1nnc(SCC(=O)Nc2sc3c(c2C(N)=O)CCC3)n1Cc1ccccc1` [1-C2, 2-{2-[(4-benzyl-5-methyl-4H-1,2,4-triazol-3-yl)sulfanyl]acetamido}-4H,5H,6H-cyclopenta[b]thiophene-3-carboxamide], the “% long compare to B” value is given as −18%.

Regarding `CC1CCc2c(sc(NC(=O)CSc3nncn3-c3ccccc3)c2C(N)=O)C1` (centres unmarked) [1-C3, 6-methyl-2-{2-[(4-phenyl-4H-1,2,4-triazol-3-yl)sulfanyl]acetamido}-4,5,6,7-tetrahydro-1-benzothiophene-3-carboxamide], the “% long compare to B” value is −9%.

Take `NC(=O)c1c(NC(=O)CSc2nncn2-c2ccccc2)sc2c1CCC2` [1-C4, 2-{2-[(4-phenyl-4H-1,2,4-triazol-3-yl)sulfanyl]acetamido}-4H,5H,6H-cyclopenta-[b]thiophene-3-carboxamide]: the “% long compare to B” value was −13%.

On to `Cc1ccccc1-n1cnnc1SCC(=O)Nc1sc2c(c1C(N)=O)CCC2` [1-C5, 2-(2-{[4-(2-methylphenyl)-4H-1,2,4-triazol-3-yl]sulfanyl}acet-amido)-4H,5H,6H-cyclopenta-[b]thiophene-3-carboxamide], for which the “% long compare to B” value worked out at 12%.

Regarding `Cn1c(CC2CCS(=O)(=O)C2)nnc1SCC(=O)Nc1sc2c(c1C(N)=O)CCCC2` (stereo not drawn) [1-C6, 2-[2-({5-[(1,1-dioxo-1λ^6-thiolan-3-yl)methyl]-4-methyl-4H-1,2,4-triazol-3-yl}sulfanyl)-acetamido]-4,5,6,7-tetrahydro-l-benzothiophene-3-carboxamide], the “% long compare to B” value came out at 23%.

In the case of `CC(Sc1nnc(C2CC2)n1Cc1ccccc1)C(=O)Nc1sc2c(c1C(N)=O)CCC2` (centres unmarked) [1-C7, 2-{2-[(4-benzyl-5-cyclopropyl-4H-1,2,4-triazol-3-yl)sulfanyl]-propanamido}-4H,5H,6H-cyclopenta[b]thiophene-3-carboxamide], the “% long compare to B” value is reported as −9%.

Take `NC(=O)c1c(NC(=O)CSc2nnc(Cc3cccs3)n2-c2ccccc2)sc2c1CCC2` [1-C8, 2-[2-({4-phenyl-5-[(thiophen-2-yl)methyl]-4H-1,2,4-triazol-3-yl}sulfanyl)acetamido]-4H,5H,6H-cyclopenta[b]thio-phene-3-carboxamide]: the “% long compare to B” value came out at 35%.

Turning to `Cc1occc1-c1nnc(SC(C)C(=O)Nc2sc3c(c2C(N)=O)CCC3)n1C` (centres unmarked) [1-C9, 2-(2-{[4-methyl-5-(2-methylfuran-3-yl)-4H-1,2,4-triazol-3-yl]sulfanyl}propanamido)-4H,5H,6H-cyclopenta[b]thio-phene-3-carboxamide], the “% long compare to B” value is listed as −3%.

As for `COC(=O)c1c(NC(=O)CSc2nnc(C)n2-c2ccccc2)sc2c1CCC2` [1-C10, methyl 2-{2-[(5-methyl-4-phenyl-4H-1,2,4-triazol-3-yl)sulfanyl]acetamido}-4H,5H,6H-cyclopenta[b]thiophene-3-carboxylate], the “% long compare to B” value is recorded as 39%.

In the case of `Cn1c(Cc2cccs2)nnc1SCC(=O)Nc1sc2c(c1C(N)=O)CCC2` [1-C11, 2-[2-({4-methyl-5-[(thiophen-2-yl)methyl]-4H-1,2,4-triazol-3-yl}sulfanyl)acetamido]-4H,5H,6H-cyclopenta[b]thio-phene-3-carboxamide], the “% long compare to B” value amounted to 1%.
